From patent publication US5389621A, “Method of enhancing the anticoagulant effects of aspirin using salicylamide” (University of Medicine and Dentistry of New Jersey, priority 1994, dated 1995)
Where two headings read alike, the source gives them in different places.

Columns and labels:
[1] = Plasma kinetics of total 14C after oral 14C-salicylamide alone or with aspirin; type: in vivo, male Sprague-Dawley rats; conditions: for AUC.infin. of 14C: mean ± SE, n=6
Method: Male adult Sprague-Dawley rats (300-325 gm) obtained from Charles River Breeding Laboratory, N. Wilmington, Mass. were quarantined for one week. All animals were identified by ear punching. Food and water were provided ad libitum. The animals were maintained on rodent lab chow diet in a controlled environment with 50% humidity and 12 hour light/dark cycle.
Two dose combinations were employed. The low dose was 10 and/or 3 mg/kg of ASA and/or SAM, respectively, while the high dose was double the low dose. These doses were approximately equal (w/w) to that in commercially available combinations, e.g., BC® formula, when administered to humans.
Rats were divided into 2 groups; the first group consisted of 30 rats which were assigned to 5 subgroups, 6 rats each, according to the following treatment scheme:
The second group consisted of 4 subgroups and were administered double the dose received by the first group (with the exception of subgroup III).
The rats were fasted overnight (~18 hr.) before administration of the treatments and were allowed water ad libitum. The drug(s) to be given were prepared fresh in the morning of the study, dissolved in 2.5 ml of deionized water and gavaged to rats. […]
The samples were collected by heparinized plastic syringes and transferred to polyethylene test tubes. The samples, ~300 μl each, were rapidly centrifuged at 1800×g for 15 minutes at 4° C.
The terminal elimination rate constant (ke) was estimated by linear regression of the terminal β phase of the plasma concentration vs. time curves. The area under the curve (AUC.infin.) was calculated by using the trapezoidal method from zero to the last measured plasma concentration. The half-life of elimination (t1/2β) was obtained by the equation t1/2β =0.693/ke.
Total body clearance (ClT) was estimated by the equation ClT =Dose/AUC assuming a complete absorption of ASA and SAM (Iwamoto et al., 1982; Iwamoto et al., 1983). The apparent volume of distribution Vd was calculated from the formula, Vd =ClT /ke.

[2] = tested on: lipooxygenase pathway; conditions: cited from earlier work
[3] = tested on: lyso-PAF:acetyl-CoA acetyltransferase; conditions: cited from earlier work
[4] = oral, rats; cited from earlier work
[5] = tested on: cyclooxygenase; conditions: in vitro, cited from earlier work
[6] = Acid-hydrolyzed fraction of SA in liver, kidney and plasma after 14C-aspirin; conditions: low or high dose combinations
Method: Forty-eight rats were divided into two groups. The first group of rats was administered ASA, SAM or their combination in a dose approximately equal (w/w) to that in the commercially available combinations, e.g., BC® formula, when administered to humans, i.e., 10 and 3 mg/kg of ASA and SAM, respectively. The second group was administered double the dosage received by the first group.
For each sample to be analyzed, 2 aliquots each of 300 mg of tissue (liver or kidney) or 100 μl of plasma, were placed in polyethylene wide-pore tubes (Fisherbrand) along with 0.5 ml of physiological saline. The tissues were homogenized using an electrical homogenizer (Polytron, Brinkmann Instruments, Westbury, N.Y.) on high speed for 2 minutes for each sample. The tubes were dipped in ice during this procedure to minimize any loss of SA by sublimation from the heat generated by the high speed of the homogenization.
The homogenates were transferred by pipette to pyrex screw-top test tubes and the tubes were then divided into 2 groups: […]
The supernatants were filtered through disposable 0.45 μm Acrodisc filters and 100 μl were injected onto HPLC. […] The radioactivity in the vials was measured by Beckman LS scintillation counter and the difference in radioactivity between the control vials and the acidhydrolyzed ones was indicative of SA conjugates as well as part of the protein-bound SA in the tissue samples. […]

[7] = cited from earlier work
[8] = ASA 20 mg/kg with 14C-SAM 6 mg/kg
[9] = oral 14C-SAM 3 mg/kg, alone or with ASA 10 mg/kg
[10] = oral 14C-SAM 6 mg/kg, alone or with ASA 20 mg/kg

## CC(=O)Oc1ccccc1C(=O)O [ASA, acetylsalicylic acid]
[1]; [8]
  Effect of ASA on AUC.infin. of 14C after 14C-SAM: significantly increased
  Effect of ASA on elimination half-life of 14C after 14C-SAM: significantly increased
[1]; ASA low dose 10 mg/kg
  Effect of ASA on SAM kinetics: did not significantly effect SAM kinetics
[1]; low and high dose combinations
  Effect of ASA on total body clearance of SAM: tended to decrease
[2]
  Effect on the lipooxygenase pathway: reversibly block the lipooxygenase pathway
[3]
  Effect on lyso-PAF:acetyl-CoA acetyltransferase: inhibitory effect
[4]
  Intestinal and hepatic extraction and/or metabolism of oral dose: More than 60%

## N[14C](=O)c1ccccc1O [^14 C-SAM]
[1]; [9]
  C1T total body clearance of 14C: 543.7 ± 89.5 mL/h
  Cmax of 14C: 1800 ± 300 ng/mL
  T1/2β elimination half-life of 14C: 1.1 ± 0.24 h
  Vd apparent volume of distribution of 14C: 975 ± 152 mL
  AUC.infin. of 14C: 1.9 ± 0.4 μ · hr/ml
[1]; [10]
  C1T total body clearance of 14C: 501.1 ± 64.9 mL/h
  Cmax of 14C: 3700 ± 500 ng/mL
  T1/2β elimination half-life of 14C: 1.1 ± 0.1 h
  Vd apparent volume of distribution of 14C: 824 ± 156 mL
  AUC.infin. of 14C: 3.9 ± 0.5 μ · hr/ml

## NC(=O)c1ccccc1O [SAM, Salicylamide]
[5]
  Effect on cyclooxygenase: no effect in vitro on cyclooxygenase
[5]; listed as salicylamide
  Effect on cyclooxygenase: does not have a demonstrable effect on the cyclooxygenase pathway in vitro
[6]
  Change of acid-hydrolyzed SA fraction in liver: did not affect
[7]; in vivo
  Biliary excretion: negligible
  Bound to plasma proteins: About 50%
  Hydrolysis in vivo to a salicylate: not hydrolyzed in vivo to form a salicylate
[7]; oral
  First-pass metabolism of the administered dose: up to 70%
